Experimental data from US20250235545A1, “POLYPEPTIDE CONJUGATE AND USE THEREOF” (SHANGHAI CHIXI BIOMEDICAL TECHNOLOGY CO., LTD, priority 2024, published 2025).
≈ marks a conversion by molar mass, not a printed value. Read-outs that look alike come from different tables or passages of the source.

Columns and labels:
A2780 (ovarian cancer) = experiment: cells; format: cell-based; settings: CCK8, 48 h; for IC50 A2780 (ovarian cancer): Table 1; for IC50 Ovarian cancer tissue (A2780): Table 6
Description: (§1) Different types of cells were cultured with complete media (RPMI1640 (DMEM high sugar medium)+10% fetal bovine serum+1XP/S+sodium pyruvate 1 mM solution) in an incubator at 37° C. and 5% CO2 until the cells grew to a sufficient number, and the cells were collected, centrifuged at 1,000 g for 5 min, resuspended with an appropriate volume of a 10% RMPI1640 (DMEM high sugar medium) medium and counted. In a 96-well culture plate, 100 μL of cell culture fluid containing different concentrations of drugs was added, control wells (0.1% DMSO) with only corresponding drug solvents without drugs, as well as blank wells (Blank) with only the medium but without cells were set, and three parallel wells were set in each group. After that, the cells after cell counting were inoculated onto 96-well culture plates, with 100 μL of cell suspension per well, and an inoculation concentration of the cells was 5,000 cells (100 μL)/well. The plates were then cultured in a CO2 (5%) incubator at 37° C. for 48 h. After 48 h, 10 μL of a cell proliferation staining reagent (CCK8) was added to each well, the plates were incubated in a cell incubator for around 2 h, and an absorbance at 450 nm was detected.
(§2) Cell survival rates and median inhibitory concentrations of the drugs on the cells were calculated.
as §1, with “serum+1×P/S+sodium” for “serum+1XP/S+sodium”, “adjusted to an appropriate density.” for “counted.”
(§3) Cell survival rates and median inhibitory concentrations (IC50) of the drugs on the cells were calculated.

[1] = test system: A549 (non-small cell lung cancer); experiment: cells; format: cell-based; settings: CCK8, 48 h; for IC50 A549 (non-small cell lung cancer): Table 1; for IC50 Non-small cell lung cancer tissue (A549): Table 6
Description: as §1, §2
as §1, with “serum+1×P/S+sodium” for “serum+1XP/S+sodium”, “adjusted to an appropriate density.” for “counted.”
as §3

SJSA-1 (sarcoma tissue) = experiment: cells; format: cell-based; settings: CCK8, 48 h; for IC50 SJSA-1 (sarcoma tissue): Table 1; for IC50 Sarcoma tissue (SJSA-1): Table 6
Description: as §1, §2
as §1, with “serum+1×P/S+sodium” for “serum+1XP/S+sodium”, “adjusted to an appropriate density.” for “counted.”
as §3

[2] = test system: SKBR3 (breast cancer tissue); experiment: cells; format: cell-based; settings: CCK8, 48 h; for IC50 SKBR3 (breast cancer tissue): Table 1; for IC50 Breast cancer tissue (SKBR3): Table 6
Description: as §1, §2
as §1, with “serum+1×P/S+sodium” for “serum+1XP/S+sodium”, “adjusted to an appropriate density.” for “counted.”
as §3

[3] = test system: colo320 (colorectal cancer tissue); experiment: cells; format: cell-based; settings: CCK8, 48 h; Table 6
Description: as §1, with “serum+1×P/S+sodium” for “serum+1XP/S+sodium”, “adjusted to an appropriate density.” for “counted.”
as §3

[4] = test system: sarcoma SJSA-1 tumor model; settings: 5 mg/kg once a week for three weeks
Description: Test objective: To investigate the antitumor efficacy of the above compounds in an animal tumor model of sarcoma SJSA-1.
(§4) Test drug: Polypeptide conjugate, Irinotecan, Belotecan and normal saline control group.
(§5) Test animals: 6-8 weeks old BALB/c mice, all female.
(§6) SJSA-1 cells were purchased from ATCC and cultured in a DMEM medium containing 10% fetal bovine serum at 37° C. in 5% CO2. Passaging was performed every three days, and cells within 15 generations were used. 2×10^7 corresponding cells were injected into right chests of nude mice subcutaneously. After a volume of the tumors reached at least 100 mm^3, the mice were grouped randomly, with three mice in each group. Then treatment was started, and the day when the treatment was started was the first day. […] The control group was administered with normal saline. Administration was performed once a week for three weeks.
as §6

[5] = test system: colo320 colorectal cancer tumor model; settings: 5 mg/kg once a week for four weeks
Description: Test objective: To investigate the antitumor efficacy of the above compounds in an animal tumor model of colo320 colorectal cancer.
as §4, §5
as §6, with “Passaging” for “SJSA-1 cells were purchased from ATCC and cultured in a DMEM medium containing 10% fetal bovine serum at 37° C. in 5% CO2. Passaging”, “used. 7.5×10^6” for “used. 2×10^7”, “least 120” for “least 100”, “for four” for “for three”

[6] = MTD determination in mice (Examples 27, 36, 44); format: in vivo; settings: mice, monitored for 14 d
From the text: Test animals: 6-8 weeks old mice, all female; mice were grouped randomly, with six mice in each group, administered with drugs at different concentration gradients separately and monitored for 14 d. A mouse was euthanized at a loss of 20% of its initial weight and deemed to have died of poisoning.

Compound	IC50 A2780 (ovarian cancer) (A2780 (ovarian cancer))	IC50 Ovarian cancer tissue (A2780) (A2780 (ovarian cancer))	IC50 A549 (non-small cell lung cancer) [1]	IC50 Non-small cell lung cancer tissue (A549) [1]	IC50 SJSA-1 (sarcoma tissue) (SJSA-1 (sarcoma tissue))	IC50 Sarcoma tissue (SJSA-1) (SJSA-1 (sarcoma tissue))	IC50 SKBR3 (breast cancer tissue) [2]	IC50 Breast cancer tissue (SKBR3) [2]	IC50 Colorectal cancer tissue (colo320) [3]	Mouse weight (%) ([4]; Table 2)	SJSA-1 (sarcoma tissue) mean tumor volume (mm^3) ([4]; Table 2)	SJSA-1 (sarcoma) Growth rate (%) ([4]; Table 2)	Mouse weight (%) ([4]; Table 7)	SJSA-1 (sarcoma tissue) growth rate (%) ([4]; Table 7)	SJSA-1 (sarcoma tissue) mean tumor volume (mm^3) ([4]; Table 7)	Mouse weight (%) ([5]; Table 3)	colo320 (colorectal cancer cell) growth rate (%) ([5]; Table 3)	colo320 (colorectal cancer cell) mean tumor volume (mm^3) ([5]; Table 3)	Mouse weight (%) ([5]; Table 8)	colo320 (colorectal cancer cell) growth rate (%) ([5]; Table 8)	also measured
CC[C@@]1(O)C(=O)OCc2c1cc1n(c2=O)Cc2c-1nc1ccccc1c2CCNCC(C)C [D5]	14 ng/mL (≈ 0.0313 µM)	14 ng/mL (≈ 0.0313 µM)	19 ng/mL (≈ 0.0425 µM)	19 ng/mL (≈ 0.0425 µM)	12 ng/mL (≈ 0.0268 µM)	12 ng/mL (≈ 0.0268 µM)	13 ng/mL (≈ 0.029 µM)	13 ng/mL (≈ 0.029 µM)	29 ng/mL (≈ 0.0648 µM)	−5%	1443.2 mm^3	1248.78%	−5%	1248.78%	1443.2 mm^3	+8%	991.91%	1098.6 mm^3	+8%	991.91%	colo320 (colorectal cancer cell) mean tumor volume (mm^3) ([5]; Table 8): 1098.6 mm^3; MTD ([6]; Table 4): 30 mg/kg; MTD ([6]; Table 9): 30 mg/kg
CC[C@@]1(O)C(=O)OCc2c1cc1n(c2=O)Cc2c-1nc1ccccc1c2CCNC1CC1 [D6]	2.9 ng/mL (≈ 0.00672 µM)	2.9 ng/mL (≈ 0.00672 µM)	2.5 ng/mL (≈ 0.00579 µM)	2.5 ng/mL (≈ 0.00579 µM)	1.8 ng/mL (≈ 0.00417 µM)	1.8 ng/mL (≈ 0.00417 µM)	3.8 ng/mL (≈ 0.00881 µM)	3.8 ng/mL (≈ 0.00881 µM)	4.8 ng/mL (≈ 0.0111 µM)	+4%	961.3 mm^3	828.71%	+4%	831.80%	961.3 mm^3	−4%	715.73%	787.3 mm^3	−4%	710.84%	colo320 (colorectal cancer cell) mean tumor volume (mm^3) ([5]; Table 8): 787.3 mm^3; MTD ([6]; Table 4): 10 mg/kg; MTD ([6]; Table 9): 10 mg/kg
